Source: ChEMBL document CHEMBL1201862, “PubChem BioAssay data set” (2004)
Active and inactive are the calls of the source.

What was measured:
[1] = target: Intestinal-type alkaline phosphatase (Homo sapiens, UniProt P09923); assay: Dose Response confirmation of uHTS hits from a small molecule inhibitors of human intestinal alkaline phosphatase via a luminescent assay. [Related pubchem assays (depositor defined):AID2544, AID2574]; type: functional
[2] = target: T1, Eukaryotic translation initiation factor 2-alpha kinase 3 (Homo sapiens, UniProt Q9NZJ5); assay: Dose response cell-based high-throughput screening assay to measure PERK inhibition. [Related pubchem assays: 1416 ]; type: functional
T1 sequence (Q9NZJ5 whole entry): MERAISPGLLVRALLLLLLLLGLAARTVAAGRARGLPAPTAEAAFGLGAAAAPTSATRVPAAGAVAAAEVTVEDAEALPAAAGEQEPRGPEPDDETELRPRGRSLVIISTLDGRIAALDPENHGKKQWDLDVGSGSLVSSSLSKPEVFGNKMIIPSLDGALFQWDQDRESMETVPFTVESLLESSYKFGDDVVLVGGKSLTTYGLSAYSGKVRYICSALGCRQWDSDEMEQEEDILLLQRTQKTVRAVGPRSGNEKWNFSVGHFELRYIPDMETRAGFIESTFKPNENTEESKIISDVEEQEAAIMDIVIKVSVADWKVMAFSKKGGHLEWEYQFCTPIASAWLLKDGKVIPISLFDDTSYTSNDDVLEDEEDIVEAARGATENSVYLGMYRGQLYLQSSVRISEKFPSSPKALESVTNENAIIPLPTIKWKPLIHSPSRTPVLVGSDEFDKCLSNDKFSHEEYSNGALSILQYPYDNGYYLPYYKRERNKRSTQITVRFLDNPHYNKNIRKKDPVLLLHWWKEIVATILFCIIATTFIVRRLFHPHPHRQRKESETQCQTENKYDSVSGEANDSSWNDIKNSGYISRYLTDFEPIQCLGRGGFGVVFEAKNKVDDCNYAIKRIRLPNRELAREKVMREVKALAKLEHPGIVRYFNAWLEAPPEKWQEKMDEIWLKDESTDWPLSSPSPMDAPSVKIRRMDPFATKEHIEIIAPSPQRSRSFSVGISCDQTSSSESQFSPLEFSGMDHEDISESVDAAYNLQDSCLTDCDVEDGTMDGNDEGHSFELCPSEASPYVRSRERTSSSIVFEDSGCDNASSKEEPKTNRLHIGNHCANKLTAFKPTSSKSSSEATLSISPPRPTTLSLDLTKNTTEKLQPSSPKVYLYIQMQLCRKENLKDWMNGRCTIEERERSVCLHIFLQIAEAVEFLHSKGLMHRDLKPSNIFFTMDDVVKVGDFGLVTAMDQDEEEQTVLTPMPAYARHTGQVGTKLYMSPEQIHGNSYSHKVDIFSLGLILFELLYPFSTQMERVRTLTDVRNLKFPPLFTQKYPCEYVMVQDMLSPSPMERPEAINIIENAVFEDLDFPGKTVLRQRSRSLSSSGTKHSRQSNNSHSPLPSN

[3] = target: T1, Eukaryotic translation initiation factor 2-alpha kinase 3; assay: Counterscreen assay for PERK inhibitors: Dose response cell-based high throughput screening assay to measure inhibition of PERK at 6 hours. [Related pubchem assays: 1522, 1416 ]; type: functional
[4] = target: Lysosomal acid glucosylceramidase (Homo sapiens, UniProt P04062); assay: Dose response cell-based high throughput screening assay to identify enhancers of beta-glucosidase activity. [Related pubchem assays: 784 ]; type: functional
Streptococcus = assay: Luminescence Microorganism-Based Dose Response Follow up to Identify Compounds Cytotoxic to Streptococcus. [Related pubchem assays: 1677 (Project Summary), 1915, 1914, 1902 (Retest at Dose), 1900 (Counter Screen), 1662 (Primary HTS)]; type: functional, organism-based
[5] = target: Glyceraldehyde-3-phosphate dehydrogenase (Homo sapiens, UniProt P04406)
Vasopressin V1a receptor = Vasopressin V1a receptor (Homo sapiens, UniProt P37288); assay: Counterscreen for Oxytocin Receptor (OXTR) agonists: Fluorescence-based cell-based high throughput dose response assay to identify agonists of the vasopressin 1 receptor (V1R). [Related pubchem assays: 2435 (Primary screen (OXTR agonists in singlicate)), 434991 (Counterscreen (V1R agonists in triplicate)), 2482 (Summary (OXTR agonists)) …; type: functional
Oxytocin receptor = Oxytocin receptor (Homo sapiens, UniProt P30559); assay: Fluorescence-based cell-based high throughput dose response assay for agonists of the Oxytocin Receptor (OXTR). [Related pubchem assays: 2435 (Primary screen (OXTR agonists in singlicate)), 434991 (Counterscreen (V1R agonists in triplicate)), 2482 (Summary (OXTR agonists)), 434963 (Confirmation screen (OXTR agonists in triplicate))]; type: functional
[6] = target: Luciferin 4-monooxygenase (Photinus pyralis, UniProt P08659); assay: Counter Screen for Luciferase-based Assay Positives. [Related pubchem assays: 620, 618, 411 ]
[7] = target: T2, Microphthalmia-associated transcription factor (Homo sapiens, UniProt O75030); assay: TRPM1 promoter luciferase signal decrease, dose response, MITF inhibitor project, cell-based, SK-MEL-5, cherry-picked, set 3 (AID 493073); type: functional
T2 sequence (O75030 whole entry): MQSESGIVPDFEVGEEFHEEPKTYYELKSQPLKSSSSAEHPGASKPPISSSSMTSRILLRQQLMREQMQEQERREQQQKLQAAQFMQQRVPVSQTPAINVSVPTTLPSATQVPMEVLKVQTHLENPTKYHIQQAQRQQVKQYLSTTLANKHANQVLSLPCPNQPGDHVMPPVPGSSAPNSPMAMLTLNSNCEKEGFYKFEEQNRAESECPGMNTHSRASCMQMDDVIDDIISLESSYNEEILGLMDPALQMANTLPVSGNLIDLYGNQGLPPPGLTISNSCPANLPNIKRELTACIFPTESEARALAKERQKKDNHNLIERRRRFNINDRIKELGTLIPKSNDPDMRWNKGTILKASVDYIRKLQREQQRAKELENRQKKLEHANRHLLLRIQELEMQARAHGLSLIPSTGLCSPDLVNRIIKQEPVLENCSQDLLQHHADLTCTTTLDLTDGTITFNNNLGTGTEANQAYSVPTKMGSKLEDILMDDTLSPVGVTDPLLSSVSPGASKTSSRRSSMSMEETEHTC

Genome polyprotein = Genome polyprotein (dengue virus type 2, UniProt P29990); assay: Dengue-2 NS5 methyltransferase inhibitors, primary screen, biochemical, confirmation dose response (AID 588689); type: functional
[8] = NIH-3T3 fibroblast cytotoxicity, dose response, cytotoxicity control, cell-based, fluorescence, Alamar Blue, secondary assay (AID 2327); type: functional;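 note: NIH-3T3 mouse fibroblasts cultured with fluconazole at 8 µg/mL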
[9] = HEp-2 cell cytotoxicity, dose response, cytotoxicity control for RSV inhibitor project, HTS (AID 2410); type: functional; settings: human respiratory syncytial virus
[10] = C. albicans growth with fluconazole, confirmation, fluorescence, retest (AID 2467); type: functional, cell-based
[11] = target: Scavenger receptor class B member 1 (Mus musculus, UniProt Q61009); assay: inhibitors of SR-BI mediated HDL lipid uptake, dose response, ldlA[mSR-BI] cells, fluorescence, cherry pick (AID 493194); type: functional, cell-based;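 note: cellular uptake of fluorescent DiI-labeled HDL measured as cell fluorescence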
[12] = HIV-1 Env-mediated cell fusion inhibitors, dose response, CCR5-tropic Env (AID 2279); type: functional
[13] = target: FAD-linked sulfhydryl oxidase ALR (Homo sapiens, UniProt P55789); assay: inhibitors of human ALR sulfhydryl oxidase, dose response, biochemical, H2O2 detection, luminescence, cherry-pick (AID 493248)
Cysteine protease ATG4B = target: T3, Cysteine protease ATG4B (Homo sapiens, UniProt Q9Y4P1); type: functional;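 note: Fluorescence-based dose-response confirmation assay measuring inhibition of ATG4B activity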
T3 sequence (Q9Y4P1 whole entry): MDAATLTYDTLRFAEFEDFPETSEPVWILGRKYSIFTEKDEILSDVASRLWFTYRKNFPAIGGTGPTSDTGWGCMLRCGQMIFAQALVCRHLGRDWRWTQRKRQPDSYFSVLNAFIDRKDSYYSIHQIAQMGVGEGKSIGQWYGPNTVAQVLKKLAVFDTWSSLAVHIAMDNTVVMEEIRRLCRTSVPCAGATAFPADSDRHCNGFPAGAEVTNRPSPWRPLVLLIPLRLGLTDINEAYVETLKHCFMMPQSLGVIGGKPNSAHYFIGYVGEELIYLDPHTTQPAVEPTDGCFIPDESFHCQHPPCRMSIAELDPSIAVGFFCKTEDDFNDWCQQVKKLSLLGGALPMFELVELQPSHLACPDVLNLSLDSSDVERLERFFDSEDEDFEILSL

Phospholipase A2 = Phospholipase A2 (Homo sapiens, UniProt P04054); type: functional;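 note: confirmatory dose-response counterscreen on phospholipase A2, testing hits that came from an ultra-high-throughput screen for ATG4B inhibitors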
[14] = target: T4, High affinity choline transporter 1 (Homo sapiens, UniProt Q9GZV3); assay: CHT inhibitors, dose response, cell-based, 5-point CRC, membrane potential dye (AID 504840); type: functional
T4 sequence (Q9GZV3 whole entry): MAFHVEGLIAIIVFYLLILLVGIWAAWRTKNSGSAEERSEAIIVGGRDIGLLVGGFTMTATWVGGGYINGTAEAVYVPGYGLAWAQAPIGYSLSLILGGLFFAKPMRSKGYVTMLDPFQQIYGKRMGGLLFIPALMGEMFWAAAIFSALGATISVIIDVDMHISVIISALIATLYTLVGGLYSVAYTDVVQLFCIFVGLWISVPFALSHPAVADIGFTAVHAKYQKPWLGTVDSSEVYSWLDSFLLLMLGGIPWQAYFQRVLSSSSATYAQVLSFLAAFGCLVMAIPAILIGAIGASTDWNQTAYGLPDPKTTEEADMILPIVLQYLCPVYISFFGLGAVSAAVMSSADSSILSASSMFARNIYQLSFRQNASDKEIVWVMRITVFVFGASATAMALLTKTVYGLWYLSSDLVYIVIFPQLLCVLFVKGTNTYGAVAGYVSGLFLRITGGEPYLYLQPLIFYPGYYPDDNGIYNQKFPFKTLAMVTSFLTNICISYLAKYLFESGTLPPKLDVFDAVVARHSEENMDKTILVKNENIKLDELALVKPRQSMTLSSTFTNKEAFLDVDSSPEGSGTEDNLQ

Vero = assay: cells; type: functional, cell-based; settings: Chlorocebus sabaeus

Sequence of Oxytocin receptor (P30559 whole entry): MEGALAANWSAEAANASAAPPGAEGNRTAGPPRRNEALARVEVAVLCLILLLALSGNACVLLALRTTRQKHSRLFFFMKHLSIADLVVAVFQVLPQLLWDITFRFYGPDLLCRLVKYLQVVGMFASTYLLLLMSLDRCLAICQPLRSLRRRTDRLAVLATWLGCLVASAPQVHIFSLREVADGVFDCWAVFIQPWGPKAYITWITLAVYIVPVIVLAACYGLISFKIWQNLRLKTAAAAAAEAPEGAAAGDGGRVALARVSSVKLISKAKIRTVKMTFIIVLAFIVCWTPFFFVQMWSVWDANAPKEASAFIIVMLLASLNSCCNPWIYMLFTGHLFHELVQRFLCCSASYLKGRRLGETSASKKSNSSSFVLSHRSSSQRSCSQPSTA
Sequence of Vasopressin V1a receptor (P37288 whole entry): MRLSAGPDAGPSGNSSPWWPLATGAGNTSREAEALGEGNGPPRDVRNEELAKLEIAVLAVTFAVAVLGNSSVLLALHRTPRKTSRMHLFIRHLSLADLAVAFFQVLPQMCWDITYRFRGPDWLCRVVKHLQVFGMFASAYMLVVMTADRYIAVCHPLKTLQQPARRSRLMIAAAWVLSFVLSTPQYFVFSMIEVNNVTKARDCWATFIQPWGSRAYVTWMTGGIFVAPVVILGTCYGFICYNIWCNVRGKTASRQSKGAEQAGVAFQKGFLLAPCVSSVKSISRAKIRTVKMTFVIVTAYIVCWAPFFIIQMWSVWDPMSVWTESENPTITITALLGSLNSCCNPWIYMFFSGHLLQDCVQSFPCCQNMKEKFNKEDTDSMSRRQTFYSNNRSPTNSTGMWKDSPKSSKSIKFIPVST
Sequence of Luciferin 4-monooxygenase (P08659 whole entry): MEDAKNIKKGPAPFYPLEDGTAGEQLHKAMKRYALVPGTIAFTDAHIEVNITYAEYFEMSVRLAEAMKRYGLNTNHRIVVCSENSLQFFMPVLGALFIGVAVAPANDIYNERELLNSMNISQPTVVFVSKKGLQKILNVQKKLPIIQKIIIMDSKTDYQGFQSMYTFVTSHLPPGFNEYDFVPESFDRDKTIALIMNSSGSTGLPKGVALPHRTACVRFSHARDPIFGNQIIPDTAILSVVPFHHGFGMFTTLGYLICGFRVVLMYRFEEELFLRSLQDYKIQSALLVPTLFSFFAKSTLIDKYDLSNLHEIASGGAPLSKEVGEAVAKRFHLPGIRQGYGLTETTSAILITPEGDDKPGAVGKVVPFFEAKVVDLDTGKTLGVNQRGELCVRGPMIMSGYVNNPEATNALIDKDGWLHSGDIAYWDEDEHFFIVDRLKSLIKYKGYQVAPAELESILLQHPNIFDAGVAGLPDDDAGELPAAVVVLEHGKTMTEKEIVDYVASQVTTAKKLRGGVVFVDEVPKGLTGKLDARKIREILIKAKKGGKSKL
Sequence of FAD-linked sulfhydryl oxidase ALR (P55789 whole entry): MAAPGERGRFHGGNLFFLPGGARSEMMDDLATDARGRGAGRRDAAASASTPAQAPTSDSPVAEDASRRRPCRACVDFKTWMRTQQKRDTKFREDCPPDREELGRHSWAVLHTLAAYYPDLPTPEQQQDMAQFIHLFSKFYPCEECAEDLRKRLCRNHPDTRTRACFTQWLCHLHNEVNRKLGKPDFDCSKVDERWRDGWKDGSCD
Sequence of Lysosomal acid glucosylceramidase (P04062 whole entry): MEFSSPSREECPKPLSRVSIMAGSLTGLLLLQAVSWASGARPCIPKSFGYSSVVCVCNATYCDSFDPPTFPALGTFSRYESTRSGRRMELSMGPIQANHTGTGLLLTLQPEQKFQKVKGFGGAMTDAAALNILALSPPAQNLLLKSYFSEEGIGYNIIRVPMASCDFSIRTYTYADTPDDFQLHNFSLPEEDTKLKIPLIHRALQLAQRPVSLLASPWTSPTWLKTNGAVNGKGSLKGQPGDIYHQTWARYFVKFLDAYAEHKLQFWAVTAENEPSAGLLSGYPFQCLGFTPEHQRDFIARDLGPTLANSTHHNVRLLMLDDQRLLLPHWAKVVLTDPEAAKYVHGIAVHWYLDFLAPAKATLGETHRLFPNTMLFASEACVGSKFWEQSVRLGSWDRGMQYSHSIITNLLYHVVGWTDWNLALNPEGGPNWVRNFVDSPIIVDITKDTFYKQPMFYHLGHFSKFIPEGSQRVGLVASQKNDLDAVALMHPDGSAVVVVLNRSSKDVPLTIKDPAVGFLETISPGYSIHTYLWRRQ
Sequence of Intestinal-type alkaline phosphatase (P09923 whole entry): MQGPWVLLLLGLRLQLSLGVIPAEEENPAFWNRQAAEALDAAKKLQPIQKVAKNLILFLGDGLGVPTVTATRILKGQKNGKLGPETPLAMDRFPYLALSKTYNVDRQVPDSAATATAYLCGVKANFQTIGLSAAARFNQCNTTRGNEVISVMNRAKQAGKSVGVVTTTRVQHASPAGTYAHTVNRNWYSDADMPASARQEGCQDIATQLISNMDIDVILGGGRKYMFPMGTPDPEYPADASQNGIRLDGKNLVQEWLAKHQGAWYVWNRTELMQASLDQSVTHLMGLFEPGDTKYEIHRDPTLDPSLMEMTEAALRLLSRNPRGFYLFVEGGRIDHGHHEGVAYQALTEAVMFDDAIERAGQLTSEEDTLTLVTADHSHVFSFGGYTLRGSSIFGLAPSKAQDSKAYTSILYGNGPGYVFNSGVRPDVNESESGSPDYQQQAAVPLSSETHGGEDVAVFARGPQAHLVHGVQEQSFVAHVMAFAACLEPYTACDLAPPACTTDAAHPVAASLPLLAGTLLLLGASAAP
Sequence of Genome polyprotein (P29990 2492-3391 limits assumed): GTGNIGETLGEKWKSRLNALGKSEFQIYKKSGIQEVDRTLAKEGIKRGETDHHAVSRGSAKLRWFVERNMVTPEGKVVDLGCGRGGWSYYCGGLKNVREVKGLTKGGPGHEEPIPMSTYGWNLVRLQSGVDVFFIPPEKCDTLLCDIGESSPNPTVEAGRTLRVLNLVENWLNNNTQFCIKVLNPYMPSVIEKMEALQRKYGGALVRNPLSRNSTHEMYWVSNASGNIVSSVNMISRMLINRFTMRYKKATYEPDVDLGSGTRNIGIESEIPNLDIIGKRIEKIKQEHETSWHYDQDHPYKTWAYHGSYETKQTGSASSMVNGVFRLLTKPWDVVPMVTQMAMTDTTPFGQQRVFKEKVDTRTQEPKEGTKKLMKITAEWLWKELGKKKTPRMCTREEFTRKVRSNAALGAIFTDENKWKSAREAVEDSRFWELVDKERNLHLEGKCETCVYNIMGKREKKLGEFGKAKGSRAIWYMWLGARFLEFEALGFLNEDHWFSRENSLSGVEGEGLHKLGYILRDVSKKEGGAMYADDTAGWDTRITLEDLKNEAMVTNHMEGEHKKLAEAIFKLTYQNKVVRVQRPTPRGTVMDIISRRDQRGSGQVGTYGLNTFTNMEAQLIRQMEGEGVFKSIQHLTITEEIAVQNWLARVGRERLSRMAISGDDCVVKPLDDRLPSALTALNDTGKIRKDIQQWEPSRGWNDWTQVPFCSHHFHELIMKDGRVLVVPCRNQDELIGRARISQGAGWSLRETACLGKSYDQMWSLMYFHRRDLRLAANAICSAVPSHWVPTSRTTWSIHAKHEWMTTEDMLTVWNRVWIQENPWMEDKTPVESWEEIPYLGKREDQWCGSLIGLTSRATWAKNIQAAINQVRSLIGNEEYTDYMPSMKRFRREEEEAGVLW
Sequence of Glyceraldehyde-3-phosphate dehydrogenase (P04406 whole entry): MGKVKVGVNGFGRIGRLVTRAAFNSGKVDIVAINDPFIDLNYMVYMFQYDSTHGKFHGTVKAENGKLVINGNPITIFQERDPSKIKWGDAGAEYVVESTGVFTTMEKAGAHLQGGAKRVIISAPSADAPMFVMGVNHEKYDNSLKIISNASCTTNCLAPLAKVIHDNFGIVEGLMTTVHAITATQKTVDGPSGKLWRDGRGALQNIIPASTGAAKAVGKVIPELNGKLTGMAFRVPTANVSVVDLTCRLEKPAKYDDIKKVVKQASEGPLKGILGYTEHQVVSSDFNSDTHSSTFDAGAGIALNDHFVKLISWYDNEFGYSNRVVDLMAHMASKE
Sequence of Phospholipase A2 (P04054 whole entry): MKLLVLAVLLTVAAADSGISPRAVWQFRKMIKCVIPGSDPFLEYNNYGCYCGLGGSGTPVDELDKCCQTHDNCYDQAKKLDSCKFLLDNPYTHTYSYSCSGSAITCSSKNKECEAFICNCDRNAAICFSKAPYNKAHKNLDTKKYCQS
Sequence of Scavenger receptor class B member 1 (Q61009 whole entry, the tested form may be a part): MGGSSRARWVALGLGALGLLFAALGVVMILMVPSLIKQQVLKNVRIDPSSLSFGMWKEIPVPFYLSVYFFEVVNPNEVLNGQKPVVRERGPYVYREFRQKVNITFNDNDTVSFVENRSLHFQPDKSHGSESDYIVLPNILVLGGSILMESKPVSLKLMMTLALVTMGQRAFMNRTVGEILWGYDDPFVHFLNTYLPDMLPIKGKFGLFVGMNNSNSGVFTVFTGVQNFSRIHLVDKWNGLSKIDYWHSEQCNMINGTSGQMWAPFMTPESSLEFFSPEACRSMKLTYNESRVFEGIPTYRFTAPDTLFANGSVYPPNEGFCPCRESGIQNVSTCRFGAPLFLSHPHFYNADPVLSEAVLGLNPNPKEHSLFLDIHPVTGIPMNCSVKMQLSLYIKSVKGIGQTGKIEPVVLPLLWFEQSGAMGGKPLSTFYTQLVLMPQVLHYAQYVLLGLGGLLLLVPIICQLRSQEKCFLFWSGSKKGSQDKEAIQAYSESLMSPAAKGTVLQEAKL

N#Cc1cc(Oc2ccccc2)c(-n2nnc3ccccc32)cc1C#N
IC50 [1]: > 100 µM (inactive)

Cn1cc(NC(=O)Nc2ccc(C(F)(F)F)cc2)c(C(F)(F)F)n1
EC50 [2]: > 55.7 µM (not active)
EC50 [3]: > 55.7 µM (not active)

COCc1cc(C)nc(NC2CCCCC2)c1C#N
EC50 [4]: > 50 µM (not active)

O=C(c1ccccc1C(F)(F)F)n1c2ccccc2c2ccccc21
EC50 (Streptococcus): > 500 µM (not active)

NS(=O)(=O)c1ccc2[nH]c3c(c2c1)CCCC3
IC50 [5]: > 100 µM (not active)

CC(Sc1ccc(Cl)cc1)C(=O)Nc1ccc(S(=O)(=O)N2CCOCC2)cc1 (stereo not drawn)
EC50 (Vasopressin V1a receptor): > 29.9 µM (not active)
EC50 (Oxytocin receptor): > 29.9 µM (not active)

O=C(NCc1cccs1)c1nc2c(nnn2Cc2ccccc2Cl)c(=O)[nH]1
EC50 [6]: 15.4 µM (active)
AC50 [7]: 6.66 µM (active)
IC50 (Genome polyprotein): 51.8 µM (active)

O=C(c1ccc(C(=O)N2CCCc3ccccc32)s1)N1CCCc2ccccc21
EC50 [8]: 20.7 µM (inconclusive)
CC50 [9]: > 50 µM (active)
EC50 [10]: 2.45 µM (active)
IC50 (cells): > 50 µM (active)

Cc1ccc(NC(=O)c2ccc3c(c2)CCN3S(C)(=O)=O)cc1C
AC50 [11]: 23.8 µM (active)

COC(C(=O)Nc1ccc(S(=O)(=O)Nc2ccc(F)cc2)cc1)c1ccccc1 (stereo not drawn)
EC50 (Vasopressin V1a receptor): > 29.9 µM (not active)
EC50 (Oxytocin receptor): > 29.9 µM (not active)

Cc1cc(C)c(NC2=NS(=O)(=O)c3ccccc32)c(C)c1
EC50 [2]: > 55.7 µM (not active)
EC50 [3]: > 55.7 µM (not active)

COc1ccc(/C=C2/SC(=O)N(CCCCCC(=O)Nc3ccccc3C(=O)O)C2=S)cc1
IC50 [12]: > 50 µM (active)
AC50 [13]: 3.05 µM (active)
IC50 (Cysteine protease ATG4B): 14.5 µM (active)
IC50 (Phospholipase A2): 5.25 µM (active)
IC50 [14]: 13.8 µM (active)

Cc1ccc(CSCC(=O)Nc2ccccc2C(=O)O)cc1
CC50 [9]: 21.9 µM (active)
IC50 (Vero): 12.2 µM (active)
IC50 (cells): 9.39 µM (active)
